{"source": "ChEMBL document CHEMBL1268919", "about": "“Berberine derivatives, with substituted amino groups linked at the 9-position, as inhibitors of acetylcholinesterase/butyrylcholinesterase” (Bioorg Med Chem Lett, 2010)", "key": {"[1]": {"biological_target": "Acetylcholinesterase (Electrophorus electricus) (UniProt O42275)", "sequence (O42275 24-633 limits assumed)": "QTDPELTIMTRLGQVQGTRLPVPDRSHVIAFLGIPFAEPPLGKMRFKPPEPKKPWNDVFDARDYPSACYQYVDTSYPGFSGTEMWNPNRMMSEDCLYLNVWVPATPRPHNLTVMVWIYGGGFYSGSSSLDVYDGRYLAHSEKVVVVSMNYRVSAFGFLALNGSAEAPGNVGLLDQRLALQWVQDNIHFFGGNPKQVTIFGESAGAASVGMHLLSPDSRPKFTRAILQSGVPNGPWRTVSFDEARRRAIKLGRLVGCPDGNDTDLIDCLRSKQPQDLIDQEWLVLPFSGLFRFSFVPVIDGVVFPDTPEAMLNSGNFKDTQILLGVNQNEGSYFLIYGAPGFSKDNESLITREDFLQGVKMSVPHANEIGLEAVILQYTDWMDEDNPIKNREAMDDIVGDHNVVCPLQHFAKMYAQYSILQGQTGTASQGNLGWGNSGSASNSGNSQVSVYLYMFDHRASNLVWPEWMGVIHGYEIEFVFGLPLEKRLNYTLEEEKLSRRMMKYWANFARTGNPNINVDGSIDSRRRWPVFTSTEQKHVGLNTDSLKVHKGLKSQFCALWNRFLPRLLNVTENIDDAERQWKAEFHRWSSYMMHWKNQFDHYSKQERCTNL", "experiment": "Mixed-type inhibition of electric eel AChE after 15 mins by Lineweaver-Burke plot analysis"}, "Acetylcholinesterase": {"biological_target": "Acetylcholinesterase (Electrophorus electricus, UniProt O42275)", "sequence (O42275 whole entry)": "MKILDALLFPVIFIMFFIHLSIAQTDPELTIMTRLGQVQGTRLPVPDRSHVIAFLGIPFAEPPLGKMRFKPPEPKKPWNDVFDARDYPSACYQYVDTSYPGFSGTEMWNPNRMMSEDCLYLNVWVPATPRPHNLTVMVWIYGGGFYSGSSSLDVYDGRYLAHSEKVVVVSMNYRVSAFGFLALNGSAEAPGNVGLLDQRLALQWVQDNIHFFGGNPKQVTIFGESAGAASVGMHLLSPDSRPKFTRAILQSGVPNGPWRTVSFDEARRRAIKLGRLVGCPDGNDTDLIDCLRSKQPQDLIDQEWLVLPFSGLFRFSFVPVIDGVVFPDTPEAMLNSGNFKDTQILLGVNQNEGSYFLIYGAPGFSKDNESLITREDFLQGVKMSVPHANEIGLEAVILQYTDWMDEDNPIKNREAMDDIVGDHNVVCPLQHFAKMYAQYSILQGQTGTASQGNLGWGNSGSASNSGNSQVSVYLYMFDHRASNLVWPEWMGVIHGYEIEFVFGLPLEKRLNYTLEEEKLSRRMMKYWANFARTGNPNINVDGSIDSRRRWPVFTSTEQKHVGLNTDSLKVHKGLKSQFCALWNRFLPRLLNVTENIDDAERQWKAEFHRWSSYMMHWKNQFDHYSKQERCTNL", "description": "Inhibition of electric eel AChE after 15 mins by Ellman's method using acetylcholine as substrate"}}, "note": "Active and inactive are the calls of the source. The rule behind the calls is not given here.", "data": [{"compound": "COc1ccc2cc3[n+](cc2c1OCCCNC1CCCCC1)CCc1cc2c(cc1-3)OCO2", "values": [{"measurement": "inhibition", "setting": "[1]", "value": "Active"}, {"measurement": "IC50", "setting": "Acetylcholinesterase", "value": 0.02, "unit": "µM"}]}, {"compound": "COc1ccc2cc3[n+](cc2c1OCCCN1CCCCC1)CCc1cc2c(cc1-3)OCO2", "values": [{"measurement": "IC50", "setting": "Acetylcholinesterase", "value": 0.052, "unit": "µM"}]}, {"compound": "CCCN(CCC)CCCOc1c(OC)ccc2cc3[n+](cc12)CCc1cc2c(cc1-3)OCO2", "values": [{"measurement": "IC50", "setting": "Acetylcholinesterase", "value": 0.31, "unit": "µM"}]}, {"compound": "COc1ccc2cc3[n+](cc2c1OCCCN1CCCC1)CCc1cc2c(cc1-3)OCO2", "values": [{"measurement": "IC50", "setting": "Acetylcholinesterase", "value": 0.093, "unit": "µM"}]}, {"compound": "COc1ccc2cc3[n+](cc2c1OCCCO)CCc1cc2c(cc1-3)OCO2", "values": [{"measurement": "IC50", "setting": "Acetylcholinesterase", "value": 2.37, "unit": "µM"}]}, {"compound": "COc1ccc2cc3[n+](cc2c1OCCCN1CCOCC1)CCc1cc2c(cc1-3)OCO2", "values": [{"measurement": "IC50", "setting": "Acetylcholinesterase", "value": 0.456, "unit": "µM"}]}, {"compound": "COc1ccc2cc3[n+](cc2c1OCCN1CCOCC1)CCc1cc2c(cc1-3)OCO2", "values": [{"measurement": "IC50", "setting": "Acetylcholinesterase", "value": 1.8, "unit": "µM"}]}, {"compound": "CCN(CC)CCCOc1c(OC)ccc2cc3[n+](cc12)CCc1cc2c(cc1-3)OCO2", "values": [{"measurement": "IC50", "setting": "Acetylcholinesterase", "value": 0.105, "unit": "µM"}]}, {"compound": "COc1ccc2cc3[n+](cc2c1OCCCN(C)C)CCc1cc2c(cc1-3)OCO2", "values": [{"measurement": "IC50", "setting": "Acetylcholinesterase", "value": 0.201, "unit": "µM"}]}, {"compound": "COc1ccc2cc3[n+](cc2c1OCCN(C)C)CCc1cc2c(cc1-3)OCO2", "values": [{"measurement": "IC50", "setting": "Acetylcholinesterase", "value": 1.74, "unit": "µM"}]}]}
